Patent publication US20060069132A1, “Azolecarboxamide herbicides” (priority 2004, published 2006)

Experiments:
[1] = test system: small flower umbrella sedge; assay: Test B flooded paddy test; format: in vivo, Cyperus difformis; details: 1000 g ai/ha, scale 0 to 100 (0 no effect, 100 complete control)
In short: (§1)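 Scale 0–100: zero equals no visible effect, 100 complete control, judged by eye relative to controls. Timing: 13 to 15 days in greenhouse post-treatment. Growth stage at spraying: two leaves (paddy) or one to four leaves, 2–18 cm (postemergence).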

morningglory = assay: Test B pre-/postemergence herbicide test; format: in vivo, Ipomoea coccinea; details: for Morningglory plant response rating: postemergence
In short: (§2)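 Formulation: non-phytotoxic solvent mix with surfactant. Timing: preemergence on seed and postemergence on 2–18 cm plants, applied concurrently. Readout after 13–15 d greenhouse: visual 0–100 control rating against controls.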

velvetleaf = assay: Test B pre-/postemergence herbicide test; format: in vivo, Abutilon theophrasti; details: for Velvetleaf plant response rating: postemergence
In short: (§3)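 Herbicidal effect was judged by eye on a 0–100 scale after plants stood 13 to 15 days in the greenhouse following pre- or postemergence treatment with surfactant-containing formulations.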

cocklebur = assay: Test B pre-/postemergence herbicide test; format: in vivo, Xanthium strumarium; details: for Cocklebur plant response rating: postemergence, scale 0 (no effect) to 100 (complete control)
In short: as §2

ducksalad [2] = assay: Test C flooded paddy test; format: in vivo, Heteranthera limosa
barnyardgrass [3] = assay: Test C flooded paddy test; format: in vivo, Echinochloa crus-galli
In short: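 Ratings (0 = no effect, 100 = complete control) come from visual comparison with untreated plants after 12 to 14 days in the greenhouse. Treatment was postemergence at the 1- to 4-leaf stage (2–18 cm), or at the 2-leaf stage for the flooded paddy barnyardgrass.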

pigweed = assay: Test B pre-/postemergence herbicide test; format: in vivo, Amaranthus retroflexus; details: for Pigweed plant response rating: postemergence
In short: as §3

large crabgrass = assay: Test B pre-/postemergence herbicide test; format: in vivo, Digitaria sanguinalis; details: for Crabgrass, Large plant response rating: postemergence
In short: as §3

Surinam grass = assay: Test B pre-/postemergence herbicide test; format: in vivo, Urochloa decumbens; details: for Surinam Grass plant response rating: postemergence
In short: as §3

corn = assay: Test B pre-/postemergence herbicide test; format: in vivo, Zea mays; details: for Corn plant response rating: postemergence
In short: as §3

barnyardgrass [4] = assay: Test B flooded paddy test; format: in vivo, Echinochloa crus-galli; details: 1000 g ai/ha, scale 0 to 100 (0 no effect, 100 complete control)
In short: as §1

rice [5] = assay: Test C flooded paddy test; format: in vivo, Oryza sativa
In short: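 Injury scored visually against controls on a 0 (no effect) to 100 (complete control) scale, 12 to 14 days after treatment in greenhouse. Flooded paddy plants treated at 2-leaf stage; postemergence plants at 1- to 4-leaf stage, 2 to 18 cm tall.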

rice [6] = assay: Test B pre-/postemergence herbicide test; format: in vivo, Oryza sativa; details: 0 = no effect, 100 = complete control, preemergence
In short: as §3

lambsquarters = assay: Test B pre-/postemergence herbicide test; format: in vivo, Chenopodium album; details: for Lambsquarters plant response rating: postemergence
In short: as §3

ducksalad [7] = assay: Test B flooded paddy test; format: in vivo, Heteranthera limosa; details: 1000 g ai/ha, scale 0 to 100 (0 no effect, 100 complete control)
In short: as §1

blackgrass = assay: Test B postemergence herbicide test; format: in vivo, Alopecurus myosuroides; details: postemergence, visual rating, scale 0 (no effect) to 100 (complete control)
In short: as §1

giant foxtail = assay: Test B pre-/postemergence herbicide test; format: in vivo, Setaria faberi; details: for Foxtail, Giant plant response rating: postemergence
In short: as §3

wild oat = assay: Test B postemergence herbicide test; format: in vivo, Avena fatua; details: postemergence
In short: (§4)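 Each value is a visual 0–100 response rating taken against controls 13 to 15 days after treatment in the greenhouse. Plants received formulated chemical postemergence at the 1- to 4-leaf stage or, in flooded paddy, at the 2-leaf stage.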

[8] = test system: smallflower umbrella sedge; assay: Test C flooded paddy test; format: in vivo, Cyperus difformis
barnyardgrass [9] = assay: Test B pre-/postemergence herbicide test; format: in vivo, Echinochloa crus-galli; details: for Barnyardgrass plant response rating: postemergence, scale 0 (no effect) to 100 (complete control)
In short: as §2

rice [10] = assay: Test B flooded paddy test; format: in vivo, Oryza sativa; details: 1000 g ai/ha, scale 0 to 100 (0 no effect, 100 complete control)
In short: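 Treated at 2-leaf (paddy) or 1–4-leaf, 2–18 cm (postemergence); greenhouse 13–15 d; visual score vs control, 0 none to 100 complete control; dash = not tested.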

wheat = assay: Test B postemergence herbicide test; format: in vivo, Triticum aestivum; parameters: key to Wheat plant response rating: 0 = no effect, 100 = complete control; details: postemergence
In short: as §4

[11] = 125 g ai/ha, 0 = no effect, 100 = complete control, preemergence
[12] = 500 g ai/ha, visual rating, 0 = no effect, 100 = complete control, preemergence
[13] = 125 g ai/ha, visual rating, scale 0 (no effect) to 100 (complete control)
[14] = 500 g ai/ha, scale 0 to 100, 0 is no effect, 100 is complete control
[15] = 125 g ai/ha, scale 0 to 100 (0 no effect, 100 complete control)
[16] = 250 g ai/ha, scale of 0 to 100, 0 is no effect, 100 is complete control
[17] = 500 g ai/ha, visual rating after 12 to 14 days, scale 0 to 100 (0 no effect, 100 complete control)

Structure (SMILES): CCn1nc(C(C)(C)C)cc1C(=O)Nc1ccnc(C(=O)N(C)C)c1 [Compound 256]
- Sedge, Umbrella plant response rating [1]: 70
- Morningglory plant response rating (0 to 100 scale) (morningglory; [11]): 0
- Plant response rating, Morningglory (morningglory; [12]): 0
- Morningglory plant response rating (morningglory; [13]): 0
- Morningglory plant response rating (morningglory; [14]): 10
- Velvetleaf plant response rating (0 to 100 scale) (velvetleaf; [11]): 0
- Plant response rating, Velvetleaf (velvetleaf; [12]): 80
- Velvetleaf plant response rating (velvetleaf; [13]): 10
- Velvetleaf plant response rating (velvetleaf; [14]): 30
- Cocklebur plant response rating (0 to 100 scale) (cocklebur; [11]): 0
- Plant response rating, Cocklebur (cocklebur; [12]): 0
- Cocklebur plant response rating (cocklebur; 125 g ai/ha, visual rating): 0
- Cocklebur plant response rating (cocklebur; 500 g ai/ha, visual rating): 0
- Ducksalad plant response rating (ducksalad [2]; 62 g ai/ha, scale 0 to 100): 0
- Ducksalad plant response rating (ducksalad [2]; [15]): 0
- Ducksalad plant response rating (ducksalad [2]; [16]): 15
- Plant response rating, Ducksalad (ducksalad [2]; [17]): 65
- Barnyardgrass plant response rating (barnyardgrass [3]; 62 g ai/ha, scale 0 to 100 (0 no effect, 100 complete control)): 0
- Barnyardgrass plant response rating (barnyardgrass [3]; [15]): 0
- Barnyardgrass plant response rating (barnyardgrass [3]; [16]): 0
- Plant response rating, Barnyardgrass (barnyardgrass [3]; [17]): 0
- Plant response rating, Pigweed (pigweed; [12]): 100
- Pigweed plant response rating (pigweed; [13]): 30
- Pigweed plant response rating (pigweed; [14]): 60
- Crabgrass, Large plant response rating (0 to 100 scale) (large crabgrass; [11]): 10
- Plant response rating, Crabgrass, Large (large crabgrass; [12]): 100
- Crabgrass, Large plant response rating (large crabgrass; [13]): 0
- Crabgrass, Large plant response rating (large crabgrass; [14]): 20
- Surinam Grass plant response rating (0 to 100 scale) (Surinam grass; [11]): 60
- Plant response rating, Surinam Grass (Surinam grass; [12]): 60
- Surinam Grass plant response rating (Surinam grass; [13]): 0
- Surinam Grass plant response rating (Surinam grass; [14]): 20
- Corn plant response rating (0 to 100 scale) (corn; [11]): 0
- Plant response rating, Corn (corn; [12]): 0
- Corn plant response rating (corn; [13]): 0
- Corn plant response rating (corn; [14]): 10
- Barnyardgrass plant response rating (barnyardgrass [4]): 30
- Rice plant response rating (rice [5]; 62 g ai/ha, scale 0 to 100): 0
- Rice plant response rating (rice [5]; [15]): 0
- Rice plant response rating (rice [5]; [16]): 0
- Plant response rating, Rice (rice [5]; [17]): 15
- Rice plant response rating (0 to 100 scale) (rice [6]; 125 g ai/ha): 30
- Plant response rating, Rice (rice [6]; 500 g ai/ha, visual rating): 80
- Plant response rating, Lambsquarters (lambsquarters; [12]): 100
- Lambsquarters plant response rating (lambsquarters; [13]): 30
- Lambsquarters plant response rating (lambsquarters; [14]): 60
- Ducksalad plant response rating (ducksalad [7]): 90
- Blackgrass plant response rating (blackgrass; 125 g ai/ha): 0
- Blackgrass plant response rating (blackgrass; 500 g ai/ha): 20
- Foxtail, Giant plant response rating (0 to 100 scale) (giant foxtail; [11]): 0
- Plant response rating, Foxtail, Giant (giant foxtail; [12]): 60
- Foxtail, Giant plant response rating (giant foxtail; [13]): 0
- Foxtail, Giant plant response rating (giant foxtail; [14]): 50
- Oat, Wild plant response rating (wild oat; [13]): 10
- Oat, Wild plant response rating (wild oat; [14]): 30
- Sedge, Umbrella plant response rating ([8]; 62 g ai/ha, scale 0 to 100): 0
- Sedge, Umbrella plant response rating [8, 15]: 0
- Sedge, Umbrella plant response rating [8, 16]: 60
- Plant response rating, Sedge, Umbrella [8, 17]: 60
- Barnyardgrass plant response rating (0 to 100 scale) (barnyardgrass [9]; [11]): 0
- Plant response rating, Barnyardgrass (barnyardgrass [9]; [12]): 70
- Barnyardgrass plant response rating (barnyardgrass [9]; 125 g ai/ha, visual rating): 0
- Barnyardgrass plant response rating (barnyardgrass [9]; 500 g ai/ha, visual rating): 60
- Rice plant response rating (rice [10]): 50
- Wheat plant response rating (wheat; [13]): 10
- Wheat plant response rating (wheat; [14]): 30
